Holding throughout (assay): NCI-60 cell line screen, 48 h
Test [1] deals with ACHN renal.
Test [2] has as its system RXF 393 renal.
The subject of test [3] is MCF7 breast.
Test [4] concerns HT29 colon.
The test system of test [5] is OVCAR-4 ovarian.
The subject of test [6] is HCC-2998 colon.
Test [7] concerns 786-0 renal.
In test [8] the test system is RPMI-8226 leukemia.
The test system of test [9] is OVCAR-8 ovarian.
The subject of test [10] is HCT-116 colon.

Our source for the GI50 and TGI values is PubChem BioAssay (NCI).

Several values for one entry are separate records, joined by “and”; a condition that tells them apart may be missing. Equal values may be shown once.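 Assay format: 96-well plates, 48-hour exposure. Here, GI50 denotes the concentration required for 50% inhibition of growth. TGI is the concentration that stops growth completely.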 Some results are limits rather than exact numbers.

As for `Cc1c(O)c2c(c(O)c1Br)C(=O)C=CC2=O`, the GI50 in test [1] is 489 nM; in test [2], 229 nM; in test [3], 410 nM; in test [4] it was 602 nM; in test [5], 1.03 µM; in test [7], 1460 nM. Also, the GI50 in test [8] is 138 nM; in [10], 1010 nM. Also, the TGI in test [1] was 2.2 µM and 1.83 µM; in [2] it was 2720 nM and 582 nM; in test [3] it was 399 nM and 1540 nM; in test [4] it was 1.1 µM and 2.8 µM; in [5], 2.23 µM; in test [6] it was 3.31 µM and 3.82 µM. The TGI in test [7] was 0.428 µM and 3.02 µM; in test [8], 1010 nM and 436 nM; in test [9], 2.74 µM; in test [10], 0.817 µM and 2.16 µM.
On to `COc1ccc(C2=NN(C(=O)c3cc(OC)c(OC)c(OC)c3)C(c3ccc(N(C)C)cc3)C2)cc1` (centres undefined), for which the GI50 in test [1] is 622 nM; in test [2] it was 252 nM; in test [3], 318 nM; in test [4] it was 395 nM; in test [5], 0.548 µM; in test [6], 357 nM. The GI50 in test [7] is 295 nM; in test [8] it was 663 nM; in test [9] it was 2420 nM; in [10] it was 439 nM. The TGI in [1] is more than 100 µM; in [2], 723 nM; in [5] it was more than 100 µM; in test [6] it was 2.69 µM; in test [8], more than 20000 nM; in test [9], more than 100 µM.
`CCOc1cccc(-c2nc(N)nc(Nc3ccccc3SSc3ccccc3Nc3nc(N)nc(-c4cccc(OCC)c4)n3)n2)c1`: the GI50 in test [1] is 2140 nM; in [2], 2860 nM; in test [3], 4970 nM; in test [4], 55800 nM; in test [5] it was 5.87 µM; in test [6] it was more than 100000 nM. Besides, the GI50 in test [7] was 5030 nM; in test [8], 2180 nM; in test [9], 4430 nM; in [10], 3950 nM. Moreover, the TGI in test [1] is 5.8 µM; in test [2], 8750 nM; in test [3] it was more than 100000 nM; in test [4], more than 100 µM; in test [5] it was more than 100 µM; in [6], more than 100 µM. Further, the TGI was 69.7 µM in test [7], 6890 nM in test [8], more than 100 µM in [9] and more than 100 µM in test [10].
Turning to `COc1cc2c(cc1Nc1nc(Nc3cccc(F)c3C(N)=O)c3cc[nH]c3n1)N(C(=O)CN1CCN(C(C)C)CC1)CC2`, the GI50 is 4590 nM in test [1]; 2300 nM in test [2]; 683 nM in test [3]; 685 nM in test [4]; 3.88 µM in test [5]; 3080 nM in test [6]. In addition, the GI50 in test [7] is 3980 nM; in test [8] it was 4580 nM; in test [9], 4540 nM; in test [10] it was 3390 nM. For the same molecule, the TGI turned out to be 10.2 µM in test [1]; 5770 nM in test [2]; 4320 nM in test [3]; 4.06 µM in test [4]; 7.94 µM in test [5]; 6.31 µM in [6]. Moreover, the TGI in test [7] turned out to be 7.53 µM; in [8] it was 10900 nM; in test [9], 10.2 µM; in test [10], 6.63 µM.
In the case of `CCCCCCCCC(=O)OCC(CS[As](C)C)OC(=O)CCCCCCCC` (centres undefined), the GI50 in [1] was 602 nM; in test [2], 548 nM; in [3], 477 nM; in test [4] it was 1510 nM; in [5] it was 9.89 µM; in test [6], 356 nM. For the same molecule, the GI50 in [7] was 1160 nM; in test [8] it was 330 nM; in [9], 1750 nM; in test [10] it was 373 nM. The TGI turned out to be 3.62 µM in [1]; 10700 nM in test [2]; 8200 nM in [3]; 17.3 µM in test [4]; 38.4 µM in test [5]; 1.83 µM in test [6]. Moreover, the TGI is more than 40.1 µM in test [7], 2160 nM in [8], 5.3 µM in test [9] and 11.3 µM in test [10].
With `Cn1c(=O)c(Oc2ccc(F)cc2F)cc2cnc(NC3CCS(=O)(=O)CC3)nc21`, the GI50 in test [1] was more than 14300 nM; in test [2] it was more than 25000 nM; in [3], more than 25000 nM; in test [4] it was more than 25000 nM; in test [5] it was more than 25 µM; in test [6], more than 25000 nM. The GI50 in test [7], in test [8], in test [9] and in test [10] was more than 25000 nM throughout. For the same molecule, the TGI in test [1] was more than 25 µM; in test [2], more than 25000 nM; in test [3] it was more than 25000 nM; in test [4] it was more than 25 µM; in [5], more than 25 µM; in test [6], more than 25 µM. In addition, the TGI in test [7] is more than 25 µM; in test [8], more than 25000 nM; in [9] it was more than 25 µM; in [10], more than 25 µM.
With `CCN(CC)C1CCC(Nc2c(C(C)=O)cnc3ccc(-c4ccc(O)c(Cl)c4)cc23)CC1` (centres undefined), the GI50 in [1] is 485 nM; in test [2] it was 615 nM; in test [3], 229 nM; in test [4], 1640 nM; in test [5], 0.77 µM; in test [6], 1630 nM. Besides, the GI50 in test [7] was 1640 nM; in test [8], 393 nM; in test [9] it was 818 nM; in test [10], 568 nM. The TGI is more than 37.8 µM in test [1]; 2280 nM in test [2]; 1420 nM in test [3]; 3.51 µM in test [4]; 13.6 µM in test [5]; 12.9 µM in test [6]. The TGI in test [7] amounted to 44.8 µM; in test [8], 2100 nM; in test [9], 14 µM; in test [10], 4.59 µM.
